# pIC50: −log10 of the molar value.
# Biological target: T1, ECE (Cavia porcellus, UniProt P97739)
# T1 construct: tissue Keystone Biologicals, Cleveland, Ohio; host or cells: frozen guinea pig lungs; lubrol PX-treated lung membranes
# T1 sequence (P97739 1-754): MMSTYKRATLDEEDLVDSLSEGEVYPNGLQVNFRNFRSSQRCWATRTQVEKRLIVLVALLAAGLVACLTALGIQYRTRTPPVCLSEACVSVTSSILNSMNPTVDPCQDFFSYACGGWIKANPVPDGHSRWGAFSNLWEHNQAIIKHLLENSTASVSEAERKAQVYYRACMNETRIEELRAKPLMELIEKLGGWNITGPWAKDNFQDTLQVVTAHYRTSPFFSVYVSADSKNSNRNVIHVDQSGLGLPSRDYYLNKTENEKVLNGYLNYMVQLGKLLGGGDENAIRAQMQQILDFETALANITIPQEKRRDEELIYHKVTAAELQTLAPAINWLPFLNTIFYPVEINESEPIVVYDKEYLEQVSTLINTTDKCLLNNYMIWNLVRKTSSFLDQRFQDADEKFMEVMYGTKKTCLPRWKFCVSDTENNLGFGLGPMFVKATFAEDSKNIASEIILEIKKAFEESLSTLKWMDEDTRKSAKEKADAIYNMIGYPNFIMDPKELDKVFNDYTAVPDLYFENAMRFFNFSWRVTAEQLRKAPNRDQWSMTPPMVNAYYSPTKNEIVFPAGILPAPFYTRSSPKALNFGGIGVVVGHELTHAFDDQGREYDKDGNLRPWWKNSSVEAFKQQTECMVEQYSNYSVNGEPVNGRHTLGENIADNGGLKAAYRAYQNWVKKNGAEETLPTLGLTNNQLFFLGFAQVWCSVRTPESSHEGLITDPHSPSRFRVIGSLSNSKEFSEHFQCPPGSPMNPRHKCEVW
# Experiment: In vitro ECE assay (inhibition of [125I]BET-1 to [125I]ET-1 conversion, lubrol-treated guinea pig lung membrane)
# Type: biochemical
# Details: L-GPLGM, 2 h preincubation at 4° C., 500 pM [125I]BET-1, table of examples, read-out: ECE IC50
# From the text: The ECE assay is based on the quantitative determination of [^125 l]ET-1 released from [^125 l]BET-1 labeled on Tyrosine-13 by binding to the membrane-bound ET receptor. […] GPLGM was also found to contain a high density of ET receptors. Thus, this preparation was utilized as a source of both ECE and a saturating concentration of ET receptors for the quantitative determination of [251l]ET-1 from the conversion of [125l ]BET-1. Under selected experimental conditions of the ECE assay, specific [125l]ET-1 bound was directly related to ECE activity. Assays were carried out in the presence of varying concentrations of test compounds to evaluate their efficacy in inhibiting ECE activity.
# Frozen guinea pig lungs (Keystone Biologicals,Cleveland, Ohio) are weighed and homogenized in 10 times gram tissue weight of solution A (50 mM Tris-HCl, pH 7.4, 0.25M sucrose, and 2 mM EDTA) using a Polytron tissue homogenizer (probe PTA-20S). Homogenization is repeated four times at speed setting seven each for 10 s and with 5-8 min intervals on ice in between homogenization. Homogenates are spun for 30 min at 2000 g (4100 rpm in an SS34 rotor or 3800 rpm in an SA-600 rotor). Supernatants containing membranes are carefully decanted and saved. Pellets are rehomogenized in solution A as described, and homogenates are spun at 2000 g for 30 min. Supernatants are removed, mixed with the supernatants from the first spin, and spun at 37000 rpm in a 45 Ti rotor (107022 g) for 60 min. Pellets containing membranes are suspended in solution B (10 mM Tris-HCl, pH 7.4, and 0.125M sucrose) using a Dounce homogenizer. Samples are divided into 1 ml fractions, rapidly frozen in a dry ice methanol bath, and stored at -80° C. All steps are carried out at 4° C.
# GPLGM fractions prepared as described above are thawed and resuspended at a concentration of 1 mg membrane protein/mL in a solution containing 0.06% lubrol PX, 50 mM Tris-HCl (pH 7.4), and 100 mM NaCl. Stir the mixture for 1 h and then spin for 1 h at 37000 rpm in a 45 Ti rotor (107022 g). Discard the supernatants and resuspend the pellets in a solution containing 50 mM Tris-HCl (pH 7.4), and 100 mM NaCl using a Dounce homogenizer, and adjust the final volume to half the original volume. Spin the homogenates for 1 h at 37000 rpm in a 45 Ti rotor (107022 g). Suspend the membrane pellets in solution B and treat as described above. All steps are performed at 4° C.
# ECE Assay: Samples of L-GPLGM containing 20 μg protein are incubated in a solution containing 100 mM Tris-HCl (pH 7), 100 mM NaCl, and 5 mg/ml BSA (Fraction V, 98-99% albumin) (Sigma Chemical Co.) at a final reaction volume of 100 μL. The ECE assay is initiated by the addition of [^125 l]BET-1 to obtain a final concentration of 500 pM. Reactions are carried out for 30 min at 37° C. Reactions are terminated by addition of 4 mL of solution C (10 mM Tris-HCl, pH 7.4, and 150 mM NaCl) at 4° C. followed by rapid filtration on Whatman GF/B glass microfiber filters. Filters are presoaked for 1 h at 4° C. in a solution containing 50 mM Tris-HCl (pH 7.4), 10 mg/mL BSA, and 0.1% sodium azide. Wash test tubes and filters four times with 4 mL of solution C at 4° C., and count radioactivity retained on the filters in a γ counter. Non-specific binding is determined in the presence of 1 μM of unlabeled ET-1 (Peninsula Laboratories, Inc., Belmont, Calif.) in the reaction mixture. All reactions are performed in duplicate.
# To test the effect of test compounds on ECE activity, ECE assays are carried out in the presence of varying concentrations of the compounds. Assays are initiated following a 2 h incubation of L-GPLGM with the compound at 4° C. ECE activity in the presence of compounds is expressed as a percentage of control ECE activity of the membrane preparation, which is determined simultaneously.
row,pIC50,SMILES
1,7.19,"CC(C)CC(CP(=O)(O)C(Cc1ccc2ccccc2c1)NC(=O)[C@H](CCCCNC(=O)OCc1ccccc1)NS(C)(=O)=O)C(=O)N[C@@H](Cc1c[nH]c2ccccc12)C(=O)O (single isomer, unassigned) [Example 9A]"
2,5.35,"CC(C)CC(CP(=O)(O)C(Cc1ccc2ccccc2c1)NC(=O)[C@H](CCCCNC(=O)OCc1ccccc1)NS(C)(=O)=O)C(=O)N[C@@H](Cc1c[nH]c2ccccc12)C(=O)O (single isomer, unassigned) [Example 9B]"
3,5.35,"CC(C)CC(CP(=O)(O)C(Cc1ccc2ccccc2c1)NC(=O)[C@H](CCCCNC(=O)OCc1ccccc1)NS(C)(=O)=O)C(=O)N[C@@H](Cc1c[nH]c2ccccc12)C(=O)O (single isomer, unassigned) [Example 9C]"
4,7.40,"CC(C)CC(CP(=O)(O)C(CC(C)C)NC(=O)[C@H](CCCCNC(=O)OCc1ccccc1)NS(C)(=O)=O)C(=O)N[C@@H](Cc1c[nH]c2ccccc12)C(=O)O (single isomer, unassigned) [Example 10A]"

# Same assay, conditions: L-GPLGM, table of additional compounds, read-out: IC50 (in vitro ECE inhibition activity)
row,pIC50,SMILES
1,6.64,CC(C)CC(CP(=O)(O)C(Cc1ccc2ccccc2c1)NC(=O)C(CCCCNC(=O)OCc1ccccc1)NC(=O)C(CC(C)C)NS(C)(=O)=O)C(=O)N[C@@H](Cc1c[nH]c2ccccc12)C(=O)O (some centres unmarked)
2,5.96,CC(C)C(CP(=O)(O)C(Cc1ccccc1)NC(=O)C(CCCCNC(=O)OCc1ccccc1)NC(=O)OCc1ccccc1)C(=O)N[C@@H](Cc1c[nH]c2ccccc12)C(=O)O (some centres unmarked)
3,6.80,CC(C)CC(CP(=O)(O)C(Cc1ccccc1)NC(=O)C(CC(C)C)NC(=O)OCc1ccccc1)C(=O)N[C@@H](Cc1c[nH]c2ccccc12)C(=O)O (some centres unmarked)
4,6.59,CC(C)CC(NC(=O)C(CCCCNC(=O)OCc1ccccc1)NS(C)(=O)=O)P(=O)(O)CC1(C(=O)N[C@@H](Cc2c[nH]c3ccccc23)C(=O)O)CCCC1 (some centres unmarked)
5,6.26,CC(C)C(CP(=O)(O)C(Cc1ccccc1)NC(=O)C(CCCN)NS(C)(=O)=O)C(=O)N[C@@H](Cc1c[nH]c2ccccc12)C(=O)O (some centres unmarked)
6,7.22,"CC(C)CC(CP(=O)(O)C(Cc1ccc2ccccc2c1)NC(=O)C(CCCCN)NS(C)(=O)=O)C(=O)N[C@@H](Cc1c[nH]c2ccccc12)C(=O)O (single isomer, unassigned) [listing 2 of 3 here]"
7,7.17,"CC(C)CC(CP(=O)(O)C(Cc1ccc2ccccc2c1)NC(=O)C(CCCCN)NS(C)(=O)=O)C(=O)N[C@@H](Cc1c[nH]c2ccccc12)C(=O)O (single isomer, unassigned) [listing 3 of 3 here]"

# Continued, compound first:
row,SMILES,pIC50
1,CCC(C)C(NC(=O)OCc1ccccc1)C(=O)NC(Cc1ccccc1)P(=O)(O)CC(C(=O)N[C@@H](Cc1c[nH]c2ccccc12)C(=O)O)C(C)C (some centres unmarked),6.40
2,CCC(C)C(N)C(=O)NC(Cc1ccccc1)P(=O)(O)CC(C(=O)N[C@@H](Cc1c[nH]c2ccccc12)C(=O)O)C(C)C (some centres unmarked),5.80
3,CC(C)C(CP(=O)(O)C(Cc1ccc2ccccc2c1)NC(=O)C(CCCCNC(=O)OCc1ccccc1)NS(C)(=O)=O)C(=O)N[C@@H](Cc1c[nH]c2ccccc12)C(=O)O (some centres unmarked),6.10
4,CC(C)CC(CP(=O)(O)C(Cc1ccccc1)NC(=O)C(CCCCNC(=O)OCc1ccccc1)NS(C)(=O)=O)C(=O)N[C@@H](Cc1c[nH]c2ccccc12)C(=O)O (some centres unmarked),6.30
5,CC(C)CC(CP(=O)(O)C(CC(C)C)NC(=O)C(CCCCNC(=O)OCc1ccccc1)NS(C)(=O)=O)C(=O)N[C@@H](Cc1c[nH]c2ccccc12)C(=O)O (some centres unmarked),5.85
6,CC(C)C(CP(=O)(O)C(Cc1ccccc1)NC(=O)C(CCCCN)NS(C)(=O)=O)C(=O)N[C@@H](Cc1c[nH]c2ccccc12)C(=O)O (some centres unmarked),6.30
7,"CC(C)C(CP(=O)(O)C(Cc1ccccc1)NC(=O)C(CCCCNC(=O)OCc1ccccc1)NS(C)(=O)=O)C(=O)N[C@@H](Cc1c[nH]c2ccccc12)C(=O)O (single isomer, unassigned) [listing 1 of 2 here]",6.41
8,"CC(C)CC(CP(=O)(O)C(Cc1ccc2ccccc2c1)NC(=O)C(CCCCN)NS(C)(=O)=O)C(=O)N[C@@H](Cc1c[nH]c2ccccc12)C(=O)O (single isomer, unassigned) [listing 1 of 3 here]",7.57
9,"CC(C)C(CP(=O)(O)C(Cc1ccccc1)NC(=O)C(CCCCNC(=O)OCc1ccccc1)NS(C)(=O)=O)C(=O)N[C@@H](Cc1c[nH]c2ccccc12)C(=O)O (single isomer, unassigned) [listing 2 of 2 here]",5.82
